Laboratory results from ChEMBL document CHEMBL1201862, “PubChem BioAssay data set” (2004).
The source made the active and inactive calls.

Columns and labels:
[1] = Luminescence Cell-Based Dose Confirmation HTS to Identify Inhibitors of Polyadenylation.; format: functional
[2] = Luminescence Cell-Based Dose Confirmation HTS to Identify Inhibitors of Platelet Dense Granule Release. [Related pubchem assays: 1663 (Primary HTS), 1678 (Summary of Project)]; format: functional
[3] = Fluorescence Cell-Based Dose Response to Identify Inhibitors of Thrombin Receptor-Activating Peptide SFLLRN-Mediated P-Selectin Induction on Platelets. [Related pubchem assays: 1663 (Primary HTS), 1889 (retest at dose ), 1891 (counterscreen), 1678 (Project Summary)]; format: functional
[4] = target: Luciferin 4-monooxygenase (Photinus pyralis, UniProt P08659); assay: inhibition of purified Photinus pyralis luciferase – biochemical, luminescence, dose response (AID 1891)
Sequence of Luciferin 4-monooxygenase (P08659 whole entry): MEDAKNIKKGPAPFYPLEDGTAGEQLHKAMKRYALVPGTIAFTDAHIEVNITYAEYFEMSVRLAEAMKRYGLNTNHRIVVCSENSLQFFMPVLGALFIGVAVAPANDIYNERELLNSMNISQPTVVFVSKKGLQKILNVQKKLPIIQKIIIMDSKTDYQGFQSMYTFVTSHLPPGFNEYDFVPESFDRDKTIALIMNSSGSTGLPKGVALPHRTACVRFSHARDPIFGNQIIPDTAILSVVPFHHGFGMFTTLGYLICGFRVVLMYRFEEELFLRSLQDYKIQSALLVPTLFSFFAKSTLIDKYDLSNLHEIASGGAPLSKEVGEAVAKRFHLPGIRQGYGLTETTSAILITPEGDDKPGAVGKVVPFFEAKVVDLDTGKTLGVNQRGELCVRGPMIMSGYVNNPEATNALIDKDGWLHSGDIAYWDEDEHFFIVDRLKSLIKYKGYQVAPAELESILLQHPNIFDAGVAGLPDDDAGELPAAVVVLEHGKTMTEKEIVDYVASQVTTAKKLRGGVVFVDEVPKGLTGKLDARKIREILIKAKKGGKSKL

[5] = target: Protein Tat (Human immunodeficiency virus type 1 group M subtype B (isolate HXB2)(HIV-1), UniProt P04608); format: functional;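 note: tat binding to TAR RNA read out by fluorescence polarization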
Sequence of Protein Tat (P04608 whole entry): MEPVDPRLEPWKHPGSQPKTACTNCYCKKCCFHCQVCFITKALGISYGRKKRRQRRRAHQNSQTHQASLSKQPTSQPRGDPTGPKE

[6] = HPDE-C7 pancreatic duct cell viability loss – fluorescence, HTS (AID 430); format: functional, cell-based; conditions: Homo sapiens
[7] = viability loss of HPDE-C7K cells – cell-based, fluorescence, HTS, primary screen (AID 431); format: functional; conditions: Homo sapiens
[8] = target: Dual specificity protein phosphatase 6 (Rattus norvegicus, UniProt Q64346); assay: inhibition of rat DUSP6 enzyme activity – biochemical, in vitro, primary screen (AID 425)
Sequence of Dual specificity protein phosphatase 6 (Q64346 whole entry): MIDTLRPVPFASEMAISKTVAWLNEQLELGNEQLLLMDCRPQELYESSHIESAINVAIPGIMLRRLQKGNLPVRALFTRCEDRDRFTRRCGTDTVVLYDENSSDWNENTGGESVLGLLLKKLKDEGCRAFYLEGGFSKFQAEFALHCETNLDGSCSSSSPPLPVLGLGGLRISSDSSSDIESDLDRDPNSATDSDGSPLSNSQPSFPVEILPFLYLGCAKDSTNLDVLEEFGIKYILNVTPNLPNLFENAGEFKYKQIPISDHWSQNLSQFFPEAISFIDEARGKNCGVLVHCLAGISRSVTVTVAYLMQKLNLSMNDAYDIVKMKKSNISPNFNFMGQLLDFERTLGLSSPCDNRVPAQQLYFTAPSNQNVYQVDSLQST

[9] = IC50 of Artemis nuclease activity blockers – biochemical, fluorescence intensity, dose response (AID 720701); format: functional;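 note: Artemis endonuclease enzyme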
[10] = viability loss in THP-1 monocytes – THP-1 cells, cytotoxicity control for Vif-APOBEC3G degradation inhibitor project, dose response (AID 1117359); format: functional; conditions: THP-1
[11] = target: Estrogen receptor beta (Homo sapiens, UniProt Q92731); assay: blockers of SRC-3 recruitment to ERβ – biochemical, ELISA, streptavidin-HRP readout, orthogonal assay, confirmation (AID 1060)
Sequence of Estrogen receptor beta (Q92731 whole entry): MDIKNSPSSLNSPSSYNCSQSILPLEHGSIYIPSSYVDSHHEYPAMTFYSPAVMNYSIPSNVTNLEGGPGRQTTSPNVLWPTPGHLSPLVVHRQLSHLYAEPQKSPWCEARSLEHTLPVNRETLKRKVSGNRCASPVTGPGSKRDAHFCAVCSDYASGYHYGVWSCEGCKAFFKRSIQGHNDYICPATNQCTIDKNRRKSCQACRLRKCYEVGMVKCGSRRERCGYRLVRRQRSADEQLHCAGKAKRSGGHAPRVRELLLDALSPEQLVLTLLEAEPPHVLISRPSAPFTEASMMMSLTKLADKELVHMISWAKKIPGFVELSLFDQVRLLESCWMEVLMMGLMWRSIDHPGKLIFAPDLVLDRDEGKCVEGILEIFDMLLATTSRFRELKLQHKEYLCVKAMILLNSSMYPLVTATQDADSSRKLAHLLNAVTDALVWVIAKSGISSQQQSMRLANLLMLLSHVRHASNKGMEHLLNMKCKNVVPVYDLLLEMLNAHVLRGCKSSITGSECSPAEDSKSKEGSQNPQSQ

[12] = HIV-1 Vif–A3G interaction blockers – biochemical, TR-FRET, GST-Vif 1-94, biotin-A3G peptide, dose response retest, primary screen (AID 1117319); format: functional;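 note: TR-FRET signal of purified GST-Vif binding a biotinylated A3G peptide; inhibitors lower the FRET signal by blocking Vif and A3G binding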
[13] = test system: Jurkat; assay: blockers of NF-kB activation in T cells – Jurkat, luciferase reporter, luminescence, B- and T-cell, dose response (AID 489004); format: functional, cell-based; conditions: Homo sapiens;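 note: NF-kB luciferase reporter Jurkat cells stimulated with PMA plus ionomycin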
[14] = test system: Vero; assay: mammalian cell viability reduction – secondary assay, cytotoxicity control for West Nile virus antiviral project, dose response (AID 1650); format: functional; conditions: Chlorocebus sabaeus
[15] = alpha-synuclein stem-loop luciferase translation blockers – H4 neuroglioma cells, luminescence, confirmation (AID 1988); format: functional, cell-based
[16] = NIH-3T3 fibroblast cytotoxicity, dose response, cytotoxicity control, cell-based, fluorescence, Alamar Blue, secondary assay (AID 2327); format: functional;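 note: NIH-3T3 mouse fibroblasts cultured with fluconazole at 8 µg/mL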
[17] = HEK-293T viability loss, compound-treated – cell-based, uHTS hits, cytotoxicity control for B/T-cell NF-kB inhibitor project, dose response (AID 489019); format: functional;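 note: IC50 reflects cytotoxicity as loss of cell viability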
[18] = fluconazole-exposed Candida albicans growth modulators – fluorescence, retest, confirmation (AID 2467); format: functional, cell-based
[19] = cells; format: functional, cell-based
[20] = microbe, parasite or virus in culture; format: functional; conditions: Mycobacterium tuberculosis
[21] = target: Cyclin-dependent kinase 5/CDK5 activator 1 (Homo sapiens, UniProt Q00535); assay: blockade of human CDK5 activity – biochemical, cherry-picked samples, set 2, dose response (AID 504545)
Sequence of Cyclin-dependent kinase 5/CDK5 activator 1 (Q00535 whole entry): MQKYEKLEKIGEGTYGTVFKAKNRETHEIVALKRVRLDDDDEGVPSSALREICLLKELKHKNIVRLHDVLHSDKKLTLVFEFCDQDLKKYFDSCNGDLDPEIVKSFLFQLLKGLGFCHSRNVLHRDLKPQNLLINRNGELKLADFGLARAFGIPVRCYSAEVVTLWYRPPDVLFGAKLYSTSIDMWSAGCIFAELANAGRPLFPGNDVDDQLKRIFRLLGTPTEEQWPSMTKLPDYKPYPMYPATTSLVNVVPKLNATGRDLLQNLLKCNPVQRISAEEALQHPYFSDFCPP
Sequence of Cyclin-dependent kinase 5/CDK5 activator 1 (Q15078 whole entry, further chain): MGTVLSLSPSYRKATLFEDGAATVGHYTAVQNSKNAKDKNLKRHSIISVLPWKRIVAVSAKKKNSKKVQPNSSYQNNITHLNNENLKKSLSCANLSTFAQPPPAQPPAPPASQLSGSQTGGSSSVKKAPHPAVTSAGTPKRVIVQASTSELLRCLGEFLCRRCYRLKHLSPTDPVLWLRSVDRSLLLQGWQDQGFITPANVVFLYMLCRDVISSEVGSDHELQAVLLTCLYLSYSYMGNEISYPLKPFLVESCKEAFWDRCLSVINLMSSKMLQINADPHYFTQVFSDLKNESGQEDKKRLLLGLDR

[22] = reduction of Shn3 3'UTR-driven luciferase in osteoblasts – cell-based, Clone20 osteoblasts, firefly luciferase, cherry-picked, dose response (AID 624132); format: functional;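 note: firefly luciferase luminescence from reporter carrying the Shn3 3'UTR in osteoblasts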
[23] = alpha-synuclein stem-loop translation blockers – luminescence, H4 neuroglioblastoma cells, dose confirmation, confirmation (AID 2454); format: functional, cell-based;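 note: H4 neuroglioblastoma cells carrying an alpha-synuclein 5'UTR luciferase reporter; potency for inhibition of the luciferase signal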
[24] = luciferase reporter signal reduction – luminescence, H4-C neuroglioblastoma cells, dose response (AID 2458); format: functional, cell-based;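 note: H4 neuroglioblastoma cells stably carrying a luciferase reporter gene fusion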
[25] = target: Dual specificity tyrosine-phosphorylation-regulated kinase 1A (Rattus norvegicus, UniProt Q63470); format: biochemical, Homo sapiens
[26] = Luminescence Cell-Based Dose Response HTS to Identify Inhibitors of 5'UTR Stem-Loop Driven Prion Protein mRNA Translation in H4 Neuroglioblastoma Cells. [Related pubchem assays: 1827 (Project Summary), 1813 (Primary HTS)]; format: functional
[27] = test system: Vero; assay: cells; format: functional, cell-based; conditions: Chlorocebus sabaeus
[28] = non-specific 3'UTR reporter inhibition in Clone20-Shn3RL – cell-based, Renilla luciferase, cherry-picked, counter-screen for Shn3 inhibitor project, dose response (AID 624133); format: functional

O=C(NCCC1=CCCCC1)c1c(O)nc2ccccn2c1=O
EC50 [1]: > 120000 nM (not active)

COc1cc2c(cc1OC)-c1cc(N3CCc4ccccc43)nc(=O)n1CC2
EC50 [2]: 6830 nM (active)
EC50 [3]: < 300 nM (active)
EC50 [4]: > 112000 nM (not active)

CSc1nc(N(CCO)CCO)c2sc3nc(-c4ccco4)c4c(c3c2n1)CCC4
IC50 [5]: 57300 nM (inconclusive)
EC50 [6]: 12600 nM (active)
EC50 [7]: 5950 nM (active)
IC50 [8]: > 10000 nM (not active)
IC50 [9]: > 20000 nM (inactive)
CC50 [10]: > 40000 nM (active)
IC50 [11]: > 50000 nM (not active)
IC50 [12]: > 34600 nM (active)

OCCCNc1cc(-c2ccnc(Nc3cccc(Cl)c3)n2)ccn1
IC50 [13]: < 160 nM (active)
CC50 [14]: 50 nM (active)
EC50 [15]: < 100 nM (active)
EC50 [16]: 269 nM (inconclusive)
IC50 [17]: 35300 nM (inactive)
EC50 [18]: 666 nM (active)
EC50 [19]: 76 nM (active)
CC50 [20]: < 80 nM (active)
AC50 [21]: 377 nM (active)
AC50 [22]: < 260 nM (active)
EC50 [23]: 182 nM (active)
EC50 [24]: 74 nM (active)
AC50 [25]: 13 nM (active)
EC50 [26]: < 100 nM (active)
IC50 [27]: > 25000 nM (active)
AC50 [28]: 375 nM (active)
